Values after ≈ are worked out from the molar mass of the structure shown. “Also recorded” adds a separate entry of the source.
What was measured:
[1] = Storage stability study of SDD tablets; format: physicochemical; details: tablet form, a year at 40° C./75% relative humidity (RH)
Description: Granules were obtained through dry granulation, milling and mixing process. A dry granulation was obtained by sieving together a mixture of microcrystalline cellulose, lactose monohydrate, croscarmellose sodium, Poloxamer 407, colloidal silicon dioxide and the SDD, then adding magnesium stearate and mixing to obtain a first admixture. The density of the first admixture was increased by dry granulation to provide a first portion of granules. A second portion of magnesium stearate was sieved with a 30-mesh sieve, then combined with the first portion of granules and mixed in a V-blender for 2 minutes to obtain a second admixture. The second portion of granules were then obtained using a roller compactor and milled. The milled granules were added to the V-blender and mixed with the extragranular excipient's microcrystalline cellulose, lactose monohydrate and croscarmellose sodium. The extragranular excipients were sieved through a 30-mesh sieve, then added to the V-blender and mixed with the granules for 2 minutes to provide a third admixture. The third admixture was compressed into different tablet strengths using die that provided conforming tablet sizes.
Active formulation tablets having the composition as described in Table 10 were tested for stability under different storage conditions.

[2] = Biopharmaceutics Classification System (BCS) class; details: stable crystalline form
Description: The Biopharmaceutics Classification System (BCS) is a system developed by the U.S. Food and Drug Administration (FDA) to differentiate forms of active pharmaceutical ingredients (API) based on their solubility and intestinal permeability, as follows: Class I: high solubility, high permeability; Class II: low solubility, high permeability; Class III: high solubility, low permeability, and Class IV: low solubility, low permeability. Formulating compositions of a BCS II-type API to enhance solubility and thus improve bioavailability can be a challenge.
(§1) The terms “Form A” and “Form B” refer to forms of Compound A that are purified anhydrous crystalline polymorph forms.

[3] = Polymorph stability studies; format: physicochemical; details: crystalline polymorphs
Description: as §1

[4] = pKa of aromatic amino group; format: physicochemical; details: weakly basic aromatic amino group
[5] = Dynamic Vapor Sorption (DVS); format: physicochemical; details: at 95% RH
[6] = Solubility in aqueous phosphate buffer and FaSSIF, pH 6.5; format: physicochemical

Question: Which “chemical and physical stability (XRPD and mDSC)” value [1] does the source give for `Cc1nc2ccc(F)cc2n1-c1nc(N)c(F)c(Nc2ccc(C(F)(F)F)cc2)n1` [Compound A, 5-fluoro-2-(6-fluoro-2-methyl-1H-benzimidazol-1-yl)-N-[4-(trifluoromethyl)phenyl]pyrimidine-4,6-diamine] here?
Answer: Its value is “both chemically and physically stable in tablet form and remained in an amorphous state”.

Question: Which results are given for `Cc1nc2ccc(F)cc2n1-c1nc(N)c(F)c(Nc2ccc(C(F)(F)F)cc2)n1` [Form A, 5-fluoro-2-(6-fluoro-2-methyl-1H-benzimidazol-1-yl)-N-[4-(trifluoromethyl)phenyl]pyrimidine-4,6-diamine]?
Answer: BCS class [2]: BCS II substance; polymorph stability [3]: more stable than Form B; also recorded: most stable anhydrous crystalline form

Question: For `Cc1nc2ccc(F)cc2n1-c1nc(N)c(F)c(Nc2ccc(C(F)(F)F)cc2)n1` [Form B, 5-fluoro-2-(6-fluoro-2-methyl-1H-benzimidazol-1-yl)-N-[4-(trifluoromethyl)phenyl]pyrimidine-4,6-diamine], which polymorph stability [3] is on record?
Answer: The polymorph stability was “converts to Form A”.

Question: With `Cc1nc2ccc(F)cc2n1-c1nc(N)c(F)c(Nc2ccc(C(F)(F)F)cc2)n1` [Form I, 5-fluoro-2-(6-fluoro-2-methyl-1H-benzimidazol-1-yl)-N-[4-(trifluoromethyl)phenyl]pyrimidine-4,6-diamine] as the molecule, how does the pKa [4] read?
Answer: The pKa was < 3.

Question: What about the water absorption [5] of the same molecule?
Answer: Its water absorption is “approximately 1.3%”.

Question: And the solubility ([6]; Fasted State Intestinal Fluid (FaSSIF) at pH 6.5)?
Answer: The solubility was ~18 µg/mL (≈ 42.8 µM).

Question: What about the solubility ([6]; aqueous phosphate buffer at pH 6.5) of the same molecule?
Answer: The solubility was < 1 µg/mL.
